# From ChEMBL document CHEMBL1909046, “DrugMatrix in vitro pharmacology data”
# How the values were obtained:
# [1] = DRUGMATRIX: Atrial Natriuretic Factor (ANF) radioligand binding (ligand: [125I] ANF (rat)); format: cell membranes, Cavia porcellus, Dunkin-Hartley, Adrenal gland, Membrane; conditions: Not Active = under 50% inhibition at 10 µM
# [2] = DRUGMATRIX: beta-Lactamase enzyme inhibition (substrate: Nitrocefin); set-up: species or system Bacillus cereus; conditions: Not Active = under 50% inhibition at 10 µM
# [3] = molecular target: Sigma non-opioid intracellular receptor 1 (Homo sapiens, UniProt Q99720); assay: DRUGMATRIX: Sigma1 radioligand binding (ligand: [3H] Haloperidol); format: cell membranes, Jurkat, Membrane; conditions: jurkat; Not Active = under 50% inhibition at 10 µM
# Sigma non-opioid intracellular receptor 1, sequence (Q99720 whole entry): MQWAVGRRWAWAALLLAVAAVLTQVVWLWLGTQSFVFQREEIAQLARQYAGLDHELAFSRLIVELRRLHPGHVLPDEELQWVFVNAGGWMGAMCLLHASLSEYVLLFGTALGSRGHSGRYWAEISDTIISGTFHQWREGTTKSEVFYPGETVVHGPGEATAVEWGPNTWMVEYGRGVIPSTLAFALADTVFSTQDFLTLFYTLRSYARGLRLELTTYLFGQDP
# [4] = molecular target: T1, Cysteinyl leukotriene receptor 1 (Homo sapiens, UniProt Q9Y271); format: cell membranes, CHO-K1, Membrane; conditions: cho-k1; further: in other assays of this panel Not Active means under 50% inhibition at 10 µM
# T1 sequence (Q9Y271 whole entry): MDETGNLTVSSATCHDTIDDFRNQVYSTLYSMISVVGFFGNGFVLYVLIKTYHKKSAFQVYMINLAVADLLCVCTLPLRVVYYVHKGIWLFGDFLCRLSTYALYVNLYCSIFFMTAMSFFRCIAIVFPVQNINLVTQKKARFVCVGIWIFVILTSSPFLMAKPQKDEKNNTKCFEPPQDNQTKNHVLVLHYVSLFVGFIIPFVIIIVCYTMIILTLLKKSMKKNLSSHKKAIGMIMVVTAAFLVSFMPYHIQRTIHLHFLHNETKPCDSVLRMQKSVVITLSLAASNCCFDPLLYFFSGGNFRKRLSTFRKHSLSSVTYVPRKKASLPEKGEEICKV
# [5] = molecular target: T2, Polyunsaturated fatty acid lipoxygenase ALOX15 (Oryctolagus cuniculus, UniProt P12530); assay: biochemical; format: tissue-based, Reticulocytes;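 further: inhibition of 15-lipoxygenase enzyme activity measured with linoleic acid as the substrate; in other assays of this panel Not Active means under 50% inhibition at 10 µM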
# T2 sequence (P12530 whole entry): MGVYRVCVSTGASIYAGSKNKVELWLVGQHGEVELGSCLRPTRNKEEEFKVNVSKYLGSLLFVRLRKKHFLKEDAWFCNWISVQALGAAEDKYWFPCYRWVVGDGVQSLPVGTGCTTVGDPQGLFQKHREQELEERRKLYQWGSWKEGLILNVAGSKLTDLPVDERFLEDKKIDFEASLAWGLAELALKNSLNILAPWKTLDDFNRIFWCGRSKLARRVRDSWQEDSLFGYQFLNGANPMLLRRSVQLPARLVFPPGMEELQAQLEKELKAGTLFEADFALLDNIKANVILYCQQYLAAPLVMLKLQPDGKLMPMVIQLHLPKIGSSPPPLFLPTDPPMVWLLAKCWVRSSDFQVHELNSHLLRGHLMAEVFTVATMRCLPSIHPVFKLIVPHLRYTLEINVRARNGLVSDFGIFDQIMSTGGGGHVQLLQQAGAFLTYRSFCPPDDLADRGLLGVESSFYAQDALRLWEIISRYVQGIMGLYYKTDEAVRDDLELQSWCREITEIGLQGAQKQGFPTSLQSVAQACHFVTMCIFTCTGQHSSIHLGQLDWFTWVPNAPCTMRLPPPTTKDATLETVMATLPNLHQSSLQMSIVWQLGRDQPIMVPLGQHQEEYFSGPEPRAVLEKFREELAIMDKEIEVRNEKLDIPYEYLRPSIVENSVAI
# [6] = molecular target: T3, Muscarinic acetylcholine receptor M4 (Homo sapiens, UniProt P08173); format: cell membranes, CHO-K1, Membrane; further: in other assays of this panel Not Active means under 50% inhibition at 10 µM
# T3 sequence (P08173 whole entry): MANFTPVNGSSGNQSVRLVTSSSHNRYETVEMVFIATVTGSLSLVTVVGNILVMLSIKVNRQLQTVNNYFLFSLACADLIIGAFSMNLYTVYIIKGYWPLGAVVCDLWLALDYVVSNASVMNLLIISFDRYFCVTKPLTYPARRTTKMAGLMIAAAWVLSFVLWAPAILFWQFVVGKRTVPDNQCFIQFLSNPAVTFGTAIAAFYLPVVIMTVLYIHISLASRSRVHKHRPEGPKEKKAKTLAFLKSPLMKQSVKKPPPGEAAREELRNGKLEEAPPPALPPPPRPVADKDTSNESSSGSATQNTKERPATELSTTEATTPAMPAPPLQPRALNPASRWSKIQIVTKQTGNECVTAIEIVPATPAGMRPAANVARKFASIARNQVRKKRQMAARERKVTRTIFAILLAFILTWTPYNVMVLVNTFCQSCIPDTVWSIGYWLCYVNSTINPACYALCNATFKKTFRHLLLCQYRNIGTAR
Compound,IC50 [1],Ki [1],IC50 [2],Ki [2],IC50 [3],IC50 [4],IC50 ([5]; reticulocytes),IC50 ([6]; cho-k1),Ki [3],Ki [4],Ki ([5]; reticulocytes),Ki ([6]; cho-k1),IC50 ([5]; read-out: IC50) [µM],IC50 ([6]; read-out: IC50) [µM],Ki ([6]; read-out: Ki) [µM]
O=C(O)COC(=O)Cc1ccccc1Nc1c(Cl)cccc1Cl [ACECLOFENAC],Not Active,Not Active,Not Active,Not Active,Not Active,Not Active,Not Active,Not Active,–,–,–,–,–,–,–
O=c1[nH]c2ccccc2c2ccccc12,Not Active,Not Active,Not Active,Not Active,Not Active,Not Active,Not Active,Not Active,–,–,–,–,–,–,–
C=CCN1CC[C@]23c4c5ccc(O)c4O[C@H]2/C(=N/N=C2\CC[C@@]4(O)[C@H]6Cc7ccc(O)c8c7[C@@]4(CCN6CC=C)[C@H]2O8)CC[C@@]3(O)[C@H]1C5 [NALOXONAZINE],Not Active,Not Active,Not Active,Not Active,Not Active,Not Active,Not Active,Not Active,–,–,–,–,–,–,–
ClC1=C(Cl)[C@]2(Cl)[C@@H]3[C@@H]4C[C@@H]([C@H]5O[C@@H]45)[C@@H]3[C@@]1(Cl)C2(Cl)Cl [DIELDRIN],Not Active,Not Active,Not Active,Not Active,Not Active,Not Active,Not Active,Not Active,–,–,–,–,–,–,–
COPPER(II) OXIDE,Not Active,Not Active,Not Active,Not Active,Not Active,Not Active,Not Active,Not Active,Not Active,Not Active,Not Active,Not Active,–,–,–
CCO [ALCOHOL],Not Active,Not Active,Not Active,Not Active,Not Active,Not Active,Not Active,Not Active,–,–,–,–,–,–,–
CC(N)Cc1c[nH]c2ccc(OCc3cccs3)cc12 (centres undefined) [BW-723C86],Not Active,Not Active,Not Active,Not Active,Not Active,Not Active,Not Active,Not Active,–,–,–,–,–,–,–
CCN(CCO)CCCC(C)Nc1ccnc2cc(Cl)ccc12 (centres undefined) [HYDROXYCHLOROQUINE],Not Active,Not Active,Not Active,Not Active,Not Active,Not Active,Not Active,Not Active,–,–,–,–,–,–,–
c1ccc2sc(SSc3nc4ccccc4s3)nc2c1 [BENZOTHIAZYL DISULFIDE],Not Active,Not Active,Not Active,Not Active,Not Active,Not Active,Not Active,Not Active,–,–,–,–,–,–,–
CC(C)Cc1ccc([C@H](C)C(=O)O)cc1 [DEXIBUPROFEN],Not Active,Not Active,Not Active,Not Active,Not Active,Not Active,Not Active,Not Active,–,–,–,–,–,–,–
Cl.NC[C@H]1CC[C@H](C(=O)Oc2ccc(CCC(=O)O)cc2)CC1 [CETRAXATE HYDROCHLORIDE],Not Active,Not Active,Not Active,Not Active,Not Active,Not Active,Not Active,Not Active,–,–,–,–,–,–,–
Nc1nc(N)c2nc(CNc3ccc(C(=O)N[C@@H](CCC(=O)O)C(=O)O)cc3)cnc2n1 [AMINOPTERIN],Not Active,Not Active,Not Active,Not Active,Not Active,Not Active,Not Active,Not Active,–,–,–,–,–,–,–
NC(=O)NC(=O)Cc1ccccc1 [PHENACEMIDE],Not Active,Not Active,Not Active,Not Active,Not Active,Not Active,Not Active,Not Active,–,–,–,–,–,–,–
C[N+](C)(C)CCOC(N)=O.[Cl-] [CARBACHOL],Not Active,Not Active,Not Active,Not Active,Not Active,Not Active,Not Active,Not Active,–,–,–,–,–,–,–
O=C1c2ccccc2C(=O)C1c1ccccc1 [PHENINDIONE],Not Active,Not Active,Not Active,Not Active,Not Active,Not Active,Not Active,Not Active,–,–,–,–,–,–,–
CC(C)NCC(O)COc1ccc(CC(N)=O)cc1 (centres undefined) [ATENOLOL],Not Active,Not Active,Not Active,Not Active,Not Active,Not Active,Not Active,Not Active,–,–,–,–,–,–,–
OC[C@H]1O[C@@H]2O[C@H]3[C@H](O)[C@@H](O)[C@@H](O[C@H]4[C@H](O)[C@@H](O)[C@@H](O[C@H]5[C@H](O)[C@@H](O)[C@@H](O[C@H]6[C@H](O)[C@@H](O)[C@@H](O[C@H]7[C@H](O)[C@@H](O)[C@@H](O[C@H]8[C@H](O)[C@@H](O)[C@@H](O[C@H]1[C@H](O)[C@H]2O)O[C@@H]8CO)O[C@@H]7CO)O[C@@H]6CO)O[C@@H]5CO)O[C@@H]4CO)O[C@@H]3CO [BETADEX],Not Active,Not Active,Not Active,Not Active,Not Active,Not Active,Not Active,Not Active,–,–,–,–,–,–,–
COc1ccc(Cl)cc1C(=O)NCCc1ccc(S(=O)(=O)NC(=O)NC2CCCCC2)cc1 [GLYBURIDE],Not Active,Not Active,Not Active,Not Active,Not Active,Not Active,Not Active,Not Active,–,–,–,–,–,–,–
CCN1CCN(C(=O)N[C@@H](C(=O)N[C@@H]2C(=O)N3[C@@H]2SC(C)(C)[C@@H]3C(=O)O)c2ccccc2)C(=O)C1=O [PIPERACILLIN],Not Active,Not Active,Not Active,Not Active,Not Active,Not Active,Not Active,Not Active,–,–,–,–,–,–,–
CNC[C@H](O)c1ccc(O)c(O)c1 [EPINEPHRINE],Not Active,Not Active,Not Active,Not Active,Not Active,Not Active,–,Not Active,–,–,–,–,3.28,–,–
CCC1(c2ccccc2)C(=O)NC(=O)NC1=O [PHENOBARBITAL],Not Active,Not Active,Not Active,Not Active,Not Active,Not Active,Not Active,Not Active,–,–,–,–,–,–,–
CC1(COc2ccc(CC3SC(=O)NC3=O)cc2)CCCCC1 (centres undefined) [CIGLITAZONE],Not Active,Not Active,Not Active,Not Active,Not Active,Not Active,Not Active,–,–,–,–,–,–,16.2,2.26
O=C(O)CNCP(=O)(O)O [GLYPHOSATE],Not Active,Not Active,Not Active,Not Active,Not Active,Not Active,Not Active,Not Active,–,–,–,–,–,–,–
